In experiment [1] the test system is MDA-MB-231 cells. The experiment can be described thus: Cell viability, CCK-8 assay, MDA-MB-231. Type of experiment: cell-based, human. The settings on record: MDA-MB-231 (KRAS G13D), CCK-8, 0-1,000 μM RBP, 24, 48 or 72 h, triplicate. On the procedure:
(§1) The viability of the cells was determined via Cell Counting Kit-8 (CCK-8; Dojindo Laboratories, Kumamoto, Japan) assay. The cells were plated in 96-well culture plates at a density of 5 × 10^3 cells per well and incubated for 24 h at 37 °C in a humidified incubator with 5% CO2. […] After incubation, the medium was replaced with fresh medium containing 10% (v/v) CCK-8 reagent, and the cells were incubated for 2 h. Absorbance was measured at 450 nm using a microplate reader. All experiments were performed in triplicate.
(Tetrazolium assays rely on reduction of a dye to a coloured formazan, in cell work by metabolically active cells.)

Experiment [2] concerns MDA-MB-231 cells. The experiment can be described thus: Sphere formation assay. Type of experiment: cell-based, human. On the procedure:
The sphere formation potential of the cells was evaluated under nonadherent culture conditions. The cells were cultured in ultralow-attachment 6-well plates (Corning Life Sciences, MA, USA) at a density of 2 × 10^3 cells per well, since the low overall viability of […] prevents the use of single-cell culture methods. The cells were grown in DMEM/F12 (Invitrogen, CA, USA) supplemented with B27 serum-free supplement (1:50; Invitrogen, CA, USA), human recombinant epidermal growth factor (EGF), and 50 ng/ml human recombinant basic fibroblast growth factor (PeproTech, NJ, USA) with 100 μM peptides at 37 °C with 5% CO2. Fresh medium was added every 3 to 4 d, and sphere formation was monitored. The experiment was terminated on day 10, and the number of spheres (>50 μm) was quantified.

Another experiment has as its system HT-29 cells. As to the kind of experiment: Cell viability, CCK-8 assay, HT-29. The following applies: HT-29 (KRAS wild-type), CCK-8, 0-1,000 μM RBP, 24, 48 or 72 h, triplicate. The format is cell-based, human. The protocol: as §1
The next experiment deals with T1, integrin alpha 3 (Homo sapiens, UniProt P26006).
T1 sequence (P26006 33-1051): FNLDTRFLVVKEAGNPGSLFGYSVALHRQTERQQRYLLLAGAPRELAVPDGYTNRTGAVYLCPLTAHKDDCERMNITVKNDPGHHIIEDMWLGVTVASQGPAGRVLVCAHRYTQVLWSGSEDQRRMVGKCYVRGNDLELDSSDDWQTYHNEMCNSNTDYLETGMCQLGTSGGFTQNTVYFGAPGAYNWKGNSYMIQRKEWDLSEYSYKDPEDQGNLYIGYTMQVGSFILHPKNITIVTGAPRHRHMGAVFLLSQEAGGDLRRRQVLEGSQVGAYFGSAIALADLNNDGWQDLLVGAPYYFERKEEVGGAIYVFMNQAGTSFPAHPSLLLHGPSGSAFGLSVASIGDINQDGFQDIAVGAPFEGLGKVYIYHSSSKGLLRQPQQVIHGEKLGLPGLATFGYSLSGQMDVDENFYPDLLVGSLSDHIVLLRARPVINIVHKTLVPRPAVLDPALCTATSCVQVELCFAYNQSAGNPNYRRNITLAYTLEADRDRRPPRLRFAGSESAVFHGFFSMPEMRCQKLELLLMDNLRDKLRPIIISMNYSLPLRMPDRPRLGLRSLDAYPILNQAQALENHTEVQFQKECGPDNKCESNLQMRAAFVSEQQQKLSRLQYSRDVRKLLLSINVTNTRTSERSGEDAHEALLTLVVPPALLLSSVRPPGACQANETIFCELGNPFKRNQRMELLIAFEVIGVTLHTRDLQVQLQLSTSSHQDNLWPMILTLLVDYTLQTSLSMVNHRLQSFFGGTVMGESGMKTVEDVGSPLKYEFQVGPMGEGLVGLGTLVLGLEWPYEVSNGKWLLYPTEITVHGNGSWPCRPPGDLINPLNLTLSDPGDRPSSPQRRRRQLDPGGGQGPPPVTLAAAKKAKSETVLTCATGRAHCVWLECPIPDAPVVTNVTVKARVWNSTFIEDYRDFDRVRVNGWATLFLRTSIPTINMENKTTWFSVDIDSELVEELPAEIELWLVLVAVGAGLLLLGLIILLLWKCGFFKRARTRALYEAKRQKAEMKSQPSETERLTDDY
The experiment can be described thus: SPR (Biacore) binding of RBP to immobilized integrin alpha 3 (selectivity control). The following applies: CM5 chip, integrin alpha 3 immobilized, 11 concentrations of RBP. The protocol:
N-Hydroxysuccinimide (NHS) and EDC were used as cross-linkers. The remaining unreacted active groups on the dextran surface were blocked with ethanolamine. The running buffer consisted of 150 mM NaCl, 5 mM EDTA, and 0.05% Tween 20 in 10 mM Hepes, pH 7.4. A CM5 chip without immobilized protein was used as the blank surface in the Biacore assay (Biacore T100, GE Healthcare Bio-Sciences AB, Uppsala, Sweden). […] The dissociation phase was conducted for 5 min.
In general terms: SPR reads the build-up and loss of mass on a sensor chip optically.

The test system of experiment [3] is MDA-MB-231 cells. The experiment can be described thus: Scratch wound migration assay. Type of experiment: cell-based, human. The following applies: MDA-MB-231, serum-starved monolayer, 6-72 h. On the procedure:
To assess MDA-MB-231 cell migration, 2 methods were employed: a Transwell migration assay and a scratch assay. For the Transwell migration assay, 24-well Transwell plates (8-μm pore size; Costar, Corning Incorporated, Corning, NY, USA) were used to evaluate the invasive potential of the cells. […] Following a 6-h incubation period, nonmigratory cells were carefully removed from the upper surface of the membrane using a PBS-soaked cotton swab. The cells that successfully migrated through the membrane were fixed in methanol for 10 min, and Giemsa staining was used to visualize them. Images were captured using an Olympus DP72 camera at ×100 magnification, and the number of migrated cells in the treated samples was compared with that in the control samples. For the scratch assay, MDA-MB-231 cells (1 × 10^6 cells) were cultured in 6-well plates until they reached confluence. The cells were rinsed with PBS and incubated overnight in serum-free medium. A sterile 200-μl plastic pipette tip was used to create a linear scratch in the center of the monolayer. […] Images were taken immediately after scratching and again after 6, 24, 48, and 72 h of incubation using an Olympus CKX41 inverted microscope at ×20 magnification to evaluate the distance the cells migrated from the wound edge.

Consider one compound from publication PMC11997307, “Rat Sarcoma (RAS)-Protein-Targeting Synthetic Cell-Penetrating Peptide as an Anticancer Biomaterial” (Biomaterials Research, 2025).

For the compound `C[C@@H](O)[C@H](NC(=O)[C@H](CO)NC(=O)[C@H](CS)NC(=O)[C@H](CCCCN)NC(=O)CN)C(=O)N[C@@H](CCCNC(=N)N)C(=O)NCC(=O)N[C@@H](CCCNC(=N)N)C(=O)N[C@@H](CCCCN)C(=O)N[C@@H](CS)C(=O)N[C@@H](CS)C(=O)N[C@@H](CCCNC(=N)N)C(=O)N[C@@H](CCCNC(=N)N)C(=O)N[C@@H](CCCCN)C(=O)N[C@@H](CCCCN)C(N)=O` [RBP], the “percentage of viable cells” value in the experiment on MDA-MB-231 cells [1] was “reduced the percentage of viable KRAS G13D mutant cells in a dose-dependent manner”. For the same compound, the “spherical colonies observed in RBP-treated groups” value in the experiment with MDA-MB-231 cells [2] (MDA-MB-231, serum-free medium with growth factors, nonadherent conditions, after 3 d (Fig. 2C legend)) was “no colonies >30 μm in diameter were observed”. Besides, the “sphere proliferation vs control” value in the experiment on MDA-MB-231 cells [2] (MDA-MB-231, ultralow-attachment plates, 100 μM peptide added on the first day, 10 d) is on record as “significantly suppressed”. Also, the “decrease in the percentage of viable cells” value with HT-29 cells is given as “not significant”. Also, the “binding to unrelated receptor integrin alpha 3” value at integrin alpha 3 is given as “did not bind”. In the experiment on MDA-MB-231 cells [3], the “tumor cell migration in scratch assay” value is given as “significantly inhibited”.
